# Tested on: grass and broad leaf
# Assay: Grass and broad leaf kill, cocktails compared against glyphosate (5%)
# Assay type: in vivo
# Source text: This cocktail can be mixed with water prior to use at 1:5 parts of water to 1:200 parts of water. The higher the concentration of the cocktail the faster the kill of the weeds. Cocktail I was compared against glyphosate (5%).
# Compared against Glyphosate at 5%:
# Same as Cocktail I but add concentrated glyphosate to yield 1% glyphosate in mix.
structure (smiles),measurement,setting,value
"O=C(O)CNCP(=O)(O)O [Glyphosate, N-(phosphonomethyl) glycine]","Grass and broad leaf kill, 24 hours","24 hours, Cocktail I vs glyphosate at 5%",10%
same,"Broad leaf and grass kill, 24 hours","24 hours, Cocktail II vs glyphosate at 5%",10%
same,"Broad leaf and grass kill, 24 hours","24 hours, Cocktail III (1% glyphosate in mix) vs glyphosate at 5%",10%
same,"Broad leaf and grass kill, 2 days",Cocktail II vs glyphosate at 5%,20%
same,"Broad leaf and grass kill, 2 days",Cocktail III (1% glyphosate in mix) vs glyphosate at 5%,20%
same,"Grass and broad leaf kill, 7 days","7 days, Cocktail I vs glyphosate at 5%",100%
same,"Broad leaf and grass kill, 7 days","7 days, Cocktail II vs glyphosate at 5%",100%
same,"Broad leaf and grass kill, 7 days","7 days, Cocktail III (1% glyphosate in mix) vs glyphosate at 5%",100%

# Source: patent US20060040827A1, “Environmentally safe herbicide, fungicide, bactericide and adjuvant composition” (priority 2004, published 2006)
